Reference: article PMC9578339, “Deracemisation and stereoinversion by a nanoconfined bidirectional enzyme cascade: dual control by electrochemistry and selective metal ion activation” (Chemical Communications (Cambridge, England), 2022)

Biological target: T1, LK (R-selective alcohol dehydrogenase) (Lentilactobacillus kefiri, UniProt Q6WVP7)
T1 construct: gene adh; homo-tetramer; Mg2+ dependent; co-entrapped with FNR in porous ITO electrode
T1 sequence (Q6WVP7 1-252): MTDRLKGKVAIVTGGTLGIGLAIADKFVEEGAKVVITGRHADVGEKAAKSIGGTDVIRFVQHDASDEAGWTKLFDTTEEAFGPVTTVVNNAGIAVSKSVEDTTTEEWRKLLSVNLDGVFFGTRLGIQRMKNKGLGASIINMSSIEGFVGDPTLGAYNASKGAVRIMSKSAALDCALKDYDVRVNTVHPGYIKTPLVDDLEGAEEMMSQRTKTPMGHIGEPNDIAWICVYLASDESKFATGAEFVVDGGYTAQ
Assay: chronoamperometry on FNR/ITO electrode, chiral GC
Assay type: biochemical
Settings: pH 9.0, 50 mM TAPS, 25 °C, 5 mM Mg2+, 20 uM NADP+; enzyme entrapped with FNR and W110V in ITO electrode

`C[C@@H](O)CCc1ccccc1` [(R)-4-phenyl-2-butanol] was tested, and the “chronoamperometry on FNR/ITO electrode, chiral GC” value was “conversion of (R)-4-phenyl-2-butanol to 4-phenyl-2-butanone by LK”.
